Results from the supplement of paper PMC4862054.

System: Hs578T
Assay: normalised response (% of control), CellTox Green; higher = less cell death (100 = DMSO, 0 = benzethonium chloride kill control)
Details: incubation time: 72 h
How it was run: (§1)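 Normalised signals at single concentrations make up the values. They come from breast cancer cell lines seeded (20 µl suspension) into 384-well plates with compound at 5 concentrations in 10-fold steps over a compound-specific 10,000-fold range, incubated 72 h, and read for CellTox Green fluorescence then CellTiter-Glo luminescence. Each plate was normalised to 0.1 % DMSO (100) and a positive kill control (0).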

| Structure (SMILES) | normalised response [%] |
| --- | --- |
| O=c1[nH]c(=O)n([C@H]2C[C@H](O)[C@@H](CO)O2)cc1F [Floxuridine] (10000 nM) | 93.2 |
| Cn1cnc2c(F)c(Nc3ccc(Br)cc3F)c(C(=O)NOCCO)cc21 [MEK-162] (1000 nM) | 121 |
| O=C(c1ccc(OCCN2CCCCC2)cc1)c1c(-c2ccc(O)cc2)sc2cc(O)ccc12 [Raloxifene] (1000 nM) | 105 |
| O=c1[nH]c(=O)n([C@H]2C[C@H](O)[C@@H](CO)O2)cc1F [Floxuridine] (1000 nM) | 98.3 |
| CCCC(CCC)C(=O)O [Valproic acid] (10000 nM) | 100 |
| COC1=CC(c2cc3ccccc3[nH]2)=N/C1=C\c1[nH]c(C)cc1C [Obatoclax] (1000 nM) | 107 |

System: CAL-85-1
Assay: as above
Details: incubation time: 72 h
How it was run: as §1

| Structure (SMILES) | normalised response [%] |
| --- | --- |
| COc1cccc2c1C(=O)c1c(O)c3c(c(O)c1C2=O)C[C@@](O)(C(C)=O)C[C@@H]3O[C@H]1C[C@H](N)[C@H](O)[C@H](C)O1 [Daunorubicin] (1000 nM) | 76.2 |
| Cn1c(=O)c(F)c(Nc2ccc(I)cc2F)c2c(=O)n(C[C@@H](O)CO)cnc21 [TAK-733] (100 nM) | 89 |
| C[C@@H]1C=C2C(=O)O[C@@H]3CC[C@H](C1)[C@]23O [Galiellalactone] (50000 nM) | 46.6 |
| C[C@@H]1C=C2C(=O)O[C@@H]3CC[C@H](C1)[C@]23O [Galiellalactone] (5000 nM) | 106 |
| COc1ccc(C2=N[C@@H](c3ccc(Cl)cc3)[C@@H](c3ccc(Cl)cc3)N2C(=O)N2CCNC(=O)C2)c(OC(C)C)c1 [Nutlin-3] (1000 nM) | 108 |
| COC1=CC(c2cc3ccccc3[nH]2)=N/C1=C\c1[nH]c(C)cc1C [Obatoclax] (10000 nM) | 117 |
| CN1CCN(c2ccc3nc(-c4c(N)c5c(F)cccc5[nH]c4=O)[nH]c3c2)CC1 [Dovitinib] (10000 nM) | 86.8 |
| COc1ccc(C2=N[C@@H](c3ccc(Cl)cc3)[C@@H](c3ccc(Cl)cc3)N2C(=O)N2CCNC(=O)C2)c(OC(C)C)c1 [Nutlin-3] (10000 nM) | 80.3 |
| COC1=C2C[C@@H](C)C[C@H](OC)[C@H](O)[C@@H](C)/C=C(\C)[C@H](OC(N)=O)[C@@H](OC)/C=C\C=C(/C)C(=O)NC(=CC1=O)C2=O [Geldanamycin] (1000 nM) | 91 |
| CC(C)(C)c1cc(NC(=O)Nc2ccc(-c3cn4c(n3)sc3cc(OCCN5CCOCC5)ccc34)cc2)no1 [Quizartinib] (1000 nM) | 62.5 |
| COc1cccc2c1C(=O)c1c(O)c3c(c(O)c1C2=O)C[C@@](O)(C(C)=O)C[C@@H]3O[C@H]1C[C@H](N)[C@H](O)[C@H](C)O1 [Daunorubicin] (100 nM) | 102 |
| O=c1[nH]cc(F)c(=O)[nH]1 [Fluorouracil] (10000 nM) | 75 |
| O=C(c1ccc(OCCN2CCCCC2)cc1)c1c(-c2ccc(O)cc2)sc2cc(O)ccc12 [Raloxifene] (10000 nM) | 63.3 |
| CC(C)(C)c1cc(NC(=O)Nc2ccc(-c3cn4c(n3)sc3cc(OCCN5CCOCC5)ccc34)cc2)no1 [Quizartinib] (100 nM) | 107 |
| CCS(=O)(=O)c1cccc(-c2cc(C(=O)NC3CCN(C)CC3)c(C)c3[nH]c4ncc(C)cc4c23)c1 [TAK-901] (100 nM) | 97.9 |
| CS(=O)(=O)OCCCCOS(C)(=O)=O [Busulfan] (100000 nM) | 77.6 |
| O=c1[nH]c(=O)n([C@H]2C[C@H](O)[C@@H](CO)O2)cc1F [Floxuridine] (10000 nM) | 26.5 |
| Cn1cnc2c(F)c(Nc3ccc(Br)cc3F)c(C(=O)NOCCO)cc21 [MEK-162] (1000 nM) | 79.3 |
| O=C(c1ccc(OCCN2CCCCC2)cc1)c1c(-c2ccc(O)cc2)sc2cc(O)ccc12 [Raloxifene] (1000 nM) | 98.6 |
| O=c1[nH]c(=O)n([C@H]2C[C@H](O)[C@@H](CO)O2)cc1F [Floxuridine] (1000 nM) | 89.6 |
| CCCC(CCC)C(=O)O [Valproic acid] (10000 nM) | 111 |
| CS(=O)(=O)CCNCc1ccc(-c2ccc3ncnc(Nc4ccc(OCc5cccc(F)c5)c(Cl)c4)c3c2)o1 [Lapatinib] (1000 nM) | 59.3 |
| COC1=CC(c2cc3ccccc3[nH]2)=N/C1=C\c1[nH]c(C)cc1C [Obatoclax] (1000 nM) | 101 |

System: HCC1937
Assay: as above
Details: incubation time: 72 h
How it was run: as §1

| Structure (SMILES) | normalised response [%] |
| --- | --- |
| COc1cccc2c1C(=O)c1c(O)c3c(c(O)c1C2=O)C[C@@](O)(C(C)=O)C[C@@H]3O[C@H]1C[C@H](N)[C@H](O)[C@H](C)O1 [Daunorubicin] (1000 nM) | 137 |
| Cn1c(=O)c(F)c(Nc2ccc(I)cc2F)c2c(=O)n(C[C@@H](O)CO)cnc21 [TAK-733] (100 nM) | 108 |
| C[C@@H]1C=C2C(=O)O[C@@H]3CC[C@H](C1)[C@]23O [Galiellalactone] (50000 nM) | 81.2 |
| C[C@@H]1C=C2C(=O)O[C@@H]3CC[C@H](C1)[C@]23O [Galiellalactone] (5000 nM) | 115 |
| COc1ccc(C2=N[C@@H](c3ccc(Cl)cc3)[C@@H](c3ccc(Cl)cc3)N2C(=O)N2CCNC(=O)C2)c(OC(C)C)c1 [Nutlin-3] (1000 nM) | 115 |
| COC1=CC(c2cc3ccccc3[nH]2)=N/C1=C\c1[nH]c(C)cc1C [Obatoclax] (10000 nM) | 95.4 |
| CN1CCN(c2ccc3nc(-c4c(N)c5c(F)cccc5[nH]c4=O)[nH]c3c2)CC1 [Dovitinib] (10000 nM) | 97.9 |
| COC1=C2C[C@@H](C)C[C@H](OC)[C@H](O)[C@@H](C)/C=C(\C)[C@H](OC(N)=O)[C@@H](OC)/C=C\C=C(/C)C(=O)NC(=CC1=O)C2=O [Geldanamycin] (1000 nM) | 105 |
| CC(C)(C)c1cc(NC(=O)Nc2ccc(-c3cn4c(n3)sc3cc(OCCN5CCOCC5)ccc34)cc2)no1 [Quizartinib] (1000 nM) | 96 |
| O=c1[nH]cc(F)c(=O)[nH]1 [Fluorouracil] (10000 nM) | 104 |
| O=C(c1ccc(OCCN2CCCCC2)cc1)c1c(-c2ccc(O)cc2)sc2cc(O)ccc12 [Raloxifene] (10000 nM) | 82.8 |
| CCS(=O)(=O)c1cccc(-c2cc(C(=O)NC3CCN(C)CC3)c(C)c3[nH]c4ncc(C)cc4c23)c1 [TAK-901] (100 nM) | 91.5 |
| CS(=O)(=O)OCCCCOS(C)(=O)=O [Busulfan] (100000 nM) | 105 |
| O=c1[nH]c(=O)n([C@H]2C[C@H](O)[C@@H](CO)O2)cc1F [Floxuridine] (10000 nM) | 114 |
| Cn1cnc2c(F)c(Nc3ccc(Br)cc3F)c(C(=O)NOCCO)cc21 [MEK-162] (1000 nM) | 54.6 |
| O=C(c1ccc(OCCN2CCCCC2)cc1)c1c(-c2ccc(O)cc2)sc2cc(O)ccc12 [Raloxifene] (1000 nM) | 119 |
| O=c1[nH]c(=O)n([C@H]2C[C@H](O)[C@@H](CO)O2)cc1F [Floxuridine] (1000 nM) | 126 |
| CCCC(CCC)C(=O)O [Valproic acid] (10000 nM) | 76 |
| COC1=CC(c2cc3ccccc3[nH]2)=N/C1=C\c1[nH]c(C)cc1C [Obatoclax] (1000 nM) | -5.92 |
